In one assay the target is human GYS1 (Homo sapiens (Human), UniProt P13807). Put plainly: GYS1 coupled enzyme assay (PK/LDH). Format: biochemical. Particulars: recombinant hGYS1/GN1 protein; geometric mean of at least 2 assay runs. From the text:
The GYS1 coupled enzyme assay is a kinetic biochemical assay that indirectly quantifies the rate of glycogen synthesis by coupling the conversion of GYS1 substrate UDP-glucose into UDP with downstream enzymatic reactions. UDP is released from UDP-glucose as glucose monomers are linked into the growing glycogen strand by GYS1. The coupled assay then proceeds with pyruvate kinase utilizing UDP and phospho (enol) pyruvate (PEP) to form pyruvate. Lactate dehydrogenase then converts pyruvate and NADH into lactate and NAD+. Oxidation of NADH to NAD+ can be measured continuously with a plate reader by quantifying the decrease in NADH absorbance at 340 nm over time.
Compounds that inhibit the hGYS1 enzyme and, subsequently, the downstream conversion of NADH to NAD+, were tested using assay ready plates (black, clear bottom 384 well plates) in a final DMSO reaction volume of 2.5% DMSO. The Assay Buffer contained 50 mM Tris pH 7.5, 2 mM MgCl2, and 100 mM KCl. Fresh stocks of BSA at a final concentration of 0.02% and TCEP at 1 mM were added before splitting buffer into hGYS1 buffer and substrate buffer. To the hGYS1 buffer, rabbit liver glycogen was added at a final concentration of 0.2% glycogen. Glucose-6-Phosphate was added at 1 mM, recombinant hGYS1/GN1 protein was added at 50 nM to the substrate buffer, phosphoenolpyruvate (PEP) was added at 2 mM, UDP-Glucose was added at 0.8 mM, NADH) was added at 0.6 mM, and Pyruvate Kinase/Lactate Dehydrogenase was added at 20 units/mL. The reaction was initiated by mixing hGYS1 buffer and substrate buffer at a 1:1 ratio. Both buffers were plated using a liquid dispensing device with hGYS1 buffer plated first followed by the substrate buffer. Plates were spun briefly to eliminate air bubbles and are immediately read in continuous mode at an absorbance of 340 nm, for 10 time points in one-minute increments, for a total of 10 minutes. The slope from these 10 time points was normalized to the positive and negative control wells.
Unless otherwise specified, IC50 values are reported as the geometric mean of at least 2 assay runs on separate days. Each run represents the average of a technical replicate, where each compound was assayed twice in the same plate.

Assay [1] concerns the target hGYS1 enzyme, glycogen synthesis in HeLa cells (Homo sapiens (Human), UniProt P13807). Put plainly: GYS1 cell based assay (glycogen synthesis in HeLa cells, Glucose-glo). As to conditions: starved HeLa cells, 24 h incubation; geometric mean of at least 2 assay runs; read-out: Cellular IC50. From the text:
The GYS1 cell based assay is a bioluminescent assay that quantifies the glucose resulting from glycogen digestion; the quantified glucose is an indirect measure of GYS1 glycogen synthesis. Newly synthesized glycogen is digested using Glucoamylase; the resulting glucose is quantified by using the Glucose-glo assay kit from Promega. Glucose-glo works by coupling glucose oxidation and NADH production with a bioluminescent system that is activated with NADH. Glucose is oxidized by Glucose dehydrogenase and the reaction reduces NAD+ to NADH; NADH activates Reductase which reduces a pro-luciferin Reductase Substrate to luciferin. Luciferin is detected in a luciferase reaction using Ultra-Glo rLuciferase and ATP, and the luminesce produced is proportional to the glucose in the sample. The luminescence is measured as a single point read in a plate reader.
Compounds that inhibit the hGYS1 enzyme and, subsequently, the glycogen synthesis in cells, were tested using assay ready plates (white, clear bottom 384 well plates) in a final DMSO reaction volume of 1% DMSO. Compounds in the assay ready plates were mixed with media with no additives, except for 20 mM glucose prior to cell addition. HeLa cells were starved in media with no additives, except for 1× Glutamax for 24 h. Starved HeLa cells were plated, in a 1:1 ratio to the media in the assay ready plate and incubated for 24 h at 37° C. and 5% CO2. Cells were washed in 1×PBS buffer and lysed in lysis buffer containing 50% 1×PBS and 25% 0.3 N HCl of the final volume in the well or reaction volume; cells were incubated with lysis buffer for 10 minutes and quenched with the remaining 25% of the reaction volume that consisted of 450 mM Tris pH 8.0. Lysates were mixed in a 1:1 ratio with Glucoamylase in 100 mM Sodium Acetate buffer, pH 5.3; the mixture was incubated for 1 h at 37° C. The digested lysate was mixed in a 1:1 ratio with Glucose-glo detection mixture as per vendor recommendations (Luciferase detection buffer, Reductase, Reductase substrate, Glucose dehydrogenase, and NAD) in read-out plates (solid white 384-well plates) and incubated for 1 h at RT. The plates were read using a plate reader with luminescence capabilities. Each compound concentration Relative Luminescence Unit (RLU) was averaged and normalized to the average RLU of the positive and negative controls to obtain a percentage inhibition. The normalized data vs. concentration was plotted; to determine the half-maximal concentration (IC50), the Levenberg-Marquardt algorithm was used to fit a Hill equation to the dose response data.
Unless otherwise specified, IC50 values are reported as the geometric mean of at least 2 assay runs on separate days. […] Unless otherwise specified, IC50 values are reported as the geometric mean of at least two assay runs on separate days. Each run represents the average of a technical replicate, where each compound was assayed twice in the same plate.

The structures appear in SMILES notation.

Chain of hGYS1 enzyme, glycogen synthesis in HeLa cells (P13807 whole entry): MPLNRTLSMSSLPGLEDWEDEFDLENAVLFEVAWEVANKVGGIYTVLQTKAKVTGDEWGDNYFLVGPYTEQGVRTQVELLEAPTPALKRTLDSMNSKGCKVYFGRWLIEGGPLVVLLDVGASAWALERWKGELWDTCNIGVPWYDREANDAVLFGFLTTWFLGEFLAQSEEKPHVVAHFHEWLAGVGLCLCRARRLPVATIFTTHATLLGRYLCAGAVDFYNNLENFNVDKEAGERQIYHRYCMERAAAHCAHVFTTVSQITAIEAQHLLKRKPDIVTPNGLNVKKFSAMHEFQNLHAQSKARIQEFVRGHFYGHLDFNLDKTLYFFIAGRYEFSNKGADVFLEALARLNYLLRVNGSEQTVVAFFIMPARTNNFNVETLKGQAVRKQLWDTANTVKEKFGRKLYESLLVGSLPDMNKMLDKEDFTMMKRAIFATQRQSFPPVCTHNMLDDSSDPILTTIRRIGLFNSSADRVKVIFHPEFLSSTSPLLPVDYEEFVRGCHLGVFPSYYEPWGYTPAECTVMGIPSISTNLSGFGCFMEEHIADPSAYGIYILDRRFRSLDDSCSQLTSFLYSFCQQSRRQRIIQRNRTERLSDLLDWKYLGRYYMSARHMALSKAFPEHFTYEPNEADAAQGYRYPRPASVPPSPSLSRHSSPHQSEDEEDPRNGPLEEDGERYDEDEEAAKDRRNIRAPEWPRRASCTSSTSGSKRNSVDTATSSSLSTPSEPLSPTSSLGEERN
Chain of human GYS1 (P13807 whole entry): as above
Chain of human GYS1 (P46976 whole entry partner): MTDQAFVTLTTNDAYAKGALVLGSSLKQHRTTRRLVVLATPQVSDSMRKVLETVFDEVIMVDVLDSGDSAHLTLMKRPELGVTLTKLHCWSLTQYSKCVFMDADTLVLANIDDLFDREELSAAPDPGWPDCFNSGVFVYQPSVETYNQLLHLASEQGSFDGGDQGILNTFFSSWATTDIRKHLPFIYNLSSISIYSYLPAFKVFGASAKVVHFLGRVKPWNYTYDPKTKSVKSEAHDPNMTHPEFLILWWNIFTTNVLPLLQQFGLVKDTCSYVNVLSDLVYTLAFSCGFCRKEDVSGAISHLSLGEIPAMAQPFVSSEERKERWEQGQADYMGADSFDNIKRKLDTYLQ

With `CC(C)c1ccc([C@@H](NC(=O)[C@@H]2CCC[C@@H]2C(=O)O)c2ccccc2NC(N)=O)cc1F` [Compound 24, (1S,2R)-2-(((R)-(3-fluoro-4-isopropylphenyl)(2-ureidophenyl)methyl)carbamoyl)cyclopentane-1-carboxylic acid], the IC50 on human GYS1 came out at 2820 nM; in assay [1] it was 92000 nM.

Regarding `CC(C)c1ccc([C@@H](NC(=O)[C@@H]2CCC[C@@H]2C(=O)O)c2cccc(-c3ccn[nH]3)c2)nc1F` [Compound 4, (1S,2R)-2-(((S)-(3-(1H-pyrazol-5-yl)phenyl)(6-fluoro-5-isopropylpyridin-2-yl)methyl)carbamoyl)cyclopentane-1-carboxylic acid], on human GYS1, the half-inhibitory concentration (IC50) is 178 nM.

With `CC(C)c1ccc([C@@H](NC(=O)[C@@H]2CCC[C@@H]2C(=O)O)c2cccc3c2NC(=O)C3)cc1` [Compound 30, (1S,2R)-2-(((R)-(4-isopropylphenyl)(2-oxoindolin-7-yl)methyl)carbamoyl)cyclopentane-1-carboxylic acid], the figures for the IC50 (at human GYS1; in assay [1]) were 1610 nM and 31300 nM, respectively.

Regarding `O=C(O)[C@H]1CCC[C@H]1C(=O)N[C@@H](c1ccccc1)c1ccc(C2CC2)cn1` [Compound 12, (1S,2R)-2-(((S)-(5-cyclopropylpyridin-2-yl)(phenyl)methyl)carbamoyl)cyclopentane-1-carboxylic acid], the results for the IC50 (at human GYS1; in assay [1]) were 1730 nM and more than 65800 nM, respectively.

Take `CC(C)c1ccc([C@@H](NC(=O)C2CC(NC(=O)OC(C)(C)C)CC2C(=O)O)c2ccccc2)cc1` (single isomer, unassigned) [Compound 11, (1S or 1R,2R or 2S,4R or 4S)-4-((tert-butoxycarbonyl)amino)-2-(((S)-(4-isopropylphenyl)(phenyl)methyl)carbamoyl)cyclopentane-1-carboxylic acid]: the values for the 50% inhibitory concentration (IC50) (on human GYS1; in assay [1]) were 1940 nM and more than 100000 nM, respectively.

With `CC(C)c1ccc([C@@H](NC(=O)[C@@H]2CCC[C@@H]2C(=O)O)c2cccc3c2[nH]c(=O)n3C)cc1F` [Compound 7, (1S,2R)-2-(((R)-(3-fluoro-4-isopropylphenyl)(1-methyl-2-oxo-2,3-dihydro-1H-benzo[d]imidazol-4-yl)methyl)carbamoyl)cyclopentane-1-carboxylic acid], the IC50 on human GYS1 was 884 nM; in assay [1], more than 10000 nM.

Consider `CC(C)c1ccc([C@@H](NC(=O)[C@@H]2CCC[C@@H]2C(=O)O)c2cccc(-c3cnco3)c2)nc1F` [Compound 2, (1S,2R)-2-(((S)-(6-fluoro-5-isopropylpyridin-2-yl)(3-(oxazol-5-yl)phenyl)methyl)carbamoyl)cyclopentane-1-carboxylic acid], for which the concentration for half-maximal inhibition (IC50) at human GYS1 was 426 nM.

In the case of `CC(C)c1ccc([C@@H](NC(=O)[C@@H]2CCC[C@@H]2C(=O)O)c2cccc(-c3ccno3)c2)nc1F` [Compound 3, (1S,2R)-2-(((S)-(6-fluoro-5-isopropylpyridin-2-yl)(3-(isoxazol-5-yl)phenyl)methyl)carbamoyl)cyclopentane-1-carboxylic acid], at human GYS1, the IC50 worked out at 630 nM.

For `CC(C)c1ccc([C@@H](NC(=O)C2CC(O)CC2C(=O)O)c2ccccc2)cc1` (single isomer, unassigned) [Compound 21, (1S or 1R,2R or 2S,4S or 4R)-4-hydroxy-2-(((S)-(4-isopropylphenyl)(phenyl)methyl)carbamoyl)cyclopentane-1-carboxylic acid], the IC50 was 1960 nM on human GYS1 and more than 100000 nM in assay [1].

Consider `CC(C)c1ccc([C@@H](NC(=O)[C@@H]2CCC[C@@H]2C(=O)O)c2ccn[nH]2)cc1` [Compound 32, (1S,2R)-2-(((R)-(4-isopropylphenyl)(1H-pyrazol-5-yl)methyl)carbamoyl)cyclopentane-1-carboxylic acid], for which the IC50 on human GYS1 was 2390 nM; in assay [1] it was more than 100000 nM.

In the case of `CC(C)c1ccc([C@@H](NC(=O)[C@@H]2CCC[C@@H]2C(=O)O)c2cccc(-c3ccnn3C)c2)nc1F` [Compound 1, (1S,2R)-2-(((S)-(6-fluoro-5-isopropylpyridin-2-yl)(3-(1-methyl-1H-pyrazol-5-yl)phenyl)methyl)carbamoyl)cyclopentane-1-carboxylic acid], the IC50 on human GYS1 was 1440 nM.

For `CC(C)c1ccc([C@@H](NC(=O)[C@@H]2CCC[C@@H]2C(=O)O)c2ccc3cn[nH]c3c2)nc1F` [Compound 5, (1S,2R)-2-(((S)-(6-fluoro-5-isopropylpyridin-2-yl)(1H-indazol-6-yl)methyl)carbamoyl)cyclopentane-1-carboxylic acid], the IC50 on human GYS1 turned out to be 84 nM.

In the case of `CC(C)c1ccc([C@@H](NC(=O)[C@@H]2CCC[C@@H]2C(=O)O)c2ccccc2NC(=O)C2CNC2)cc1` [Compound 13, (1S,2R)-2-(((R)-(2-(azetidine-3-carboxamido)phenyl)(4-isopropylphenyl)methyl)carbamoyl)cyclopentane-1-carboxylic acid], the IC50 was 2360 nM on human GYS1 and more than 68600 nM in assay [1].

On to `CC(C)c1ccc([C@@H](NC(=O)[C@@H]2CCC[C@@H]2C(=O)O)c2cccc3oc(=O)[nH]c23)cc1` [Compound 10, (1S,2R)-2-(((R)-(4-isopropylphenyl)(2-oxo-2,3-dihydrobenzo[d]oxazol-4-yl)methyl)carbamoyl)cyclopentane-1-carboxylic acid], for which the IC50 on human GYS1 is 2930 nM; in assay [1] it was more than 100000 nM.

`CC1(c2ccc([C@@H](NC(=O)[C@@H]3CCC[C@@H]3C(=O)O)c3ccccc3)cc2)CC1` [Compound 14, (1S,2R)-2-(((S)-(4-(1-methylcyclopropyl)phenyl)(phenyl)methyl)carbamoyl)cyclopentane-1-carboxylic acid]: the 50% inhibitory concentration (IC50) on human GYS1 is 1010 nM; in assay [1] it was more than 60800 nM.

Consider `CC(C)c1ccc([C@@H](NC(=O)C2CCC(C(=O)O)C2)c2ccccc2)cc1` (single isomer, unassigned) [Compound 33, (1S or 1R,3R or 3S)-3-(((S)-(4-isopropylphenyl)(phenyl)methyl)carbamoyl)cyclopentane-1-carboxylic acid], for which the IC50 on human GYS1 turned out to be 3130 nM.

Take `CC1(C)CC2(CC([C@@H](NC(=O)C3CCCC3C(=O)O)c3ccccc3)C2)C1` (single isomer, unassigned) [Compound 35, (1S or 1R,2R or 2S)-2-(((R)-(6,6-dimethylspiro[3.3]heptan-2-yl)(phenyl)methyl)carbamoyl)cyclopentane-1-carboxylic acid]: the half-maximal inhibitory concentration (IC50) on human GYS1 was found to be 2390 nM.

As to `O=C(O)[C@H]1CCC[C@H]1C(=O)N[C@@H](c1ccccc1)c1ccc(C2CC2)cc1` [Compound 38, (1S,2R)-2-(((S)-(4-cyclopropylphenyl)(phenyl)methyl)carbamoyl)cyclopentane-1-carboxylic acid], the IC50 at human GYS1 was found to be 1130 nM.

`O=C(O)[C@H]1CCC[C@H]1C(=O)N[C@@H](c1ccccc1)c1ccc(C2CC2)c(F)n1` [Compound 6, (1S,2R)-2-(((S)-(5-cyclopropyl-6-fluoropyridin-2-yl)(phenyl)methyl)carbamoyl)cyclopentane-1-carboxylic acid]: the IC50 at human GYS1 was 272 nM.

The term IC50 denotes the concentration that gives 50% inhibition.

The values are drawn from patent US20260021085A1, “CYCLOALKYL CARBOXYLIC ACID DERIVATIVES AS INHIBITORS OF GLYCOGEN SYNTHASE 1 (GYS1) AND METHODS OF USE THEREOF” (Maze Therapeutics, Inc., priority 2022, published 2026).
